According to patent publication US9012493B2, “1-heterodiene derivative and pest control agent” (Nippon Soda Co., Ltd., priority 2009, dated 2015):

What was measured:
Type in all cases: in vivo
[1] = system: Sweetpotato Whitefly (Bemisia Tabaci); assay: Efficacy test against sweetpotato whitefly, sprayed tomato leaf; conditions: 125 ppm, emulsifiable concentrate diluted with water, adults (type B), after 2 days, 25° C.
Outline: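 Cut tomato leaves were sprayed with an emulsifiable concentrate diluted to 125 ppm compound, air-dried, then infested with seven pairs of type B adults. Leaves were held at 25 °C and 65% humidity, and mortality was counted after 2 days as dead/released × 100. The test was run twice.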

[2] = system: Rice Armyworm (Mythimna Separata); assay: Efficacy test against rice armyworm, corn leaf dip; conditions: 125 ppm, emulsifiable concentrate diluted with water, corn leaves immersed, second instar larvae, after 5 days, 25° C.
Outline: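 Corn leaves dipped 30 s in compound diluted to 125 ppm from an emulsifiable concentrate, air-dried, then offered to five second-instar larvae. Held at 25° C and 65% humidity; mortality scored after 5 days as dead/released ×100. Run in duplicate.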

[3] = system: Twospotted Spider Mite (Tetranychus Urticae Koch); assay: Efficacy test against twospotted spider mite, spray on kidney bean plant; conditions: 125 ppm, wettable powder diluted with water, sprayed, female adults with resistance to an organophosphorus agent on kidney bean, after 3 days
[4] = system: Cotton Aphid (Aphis Gossypii); assay: Efficacy test against cotton aphid, spray on cucumber plant; conditions: 125 ppm, emulsifiable concentrate diluted with water, sprayed over cucumber plant with nymphs, after 5 days, 25° C.
Outline: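 Cucumber plants (~10 days after sprouting) carrying nymphs deposited by cotton aphid adults over 1 day were sprayed with emulsifiable concentrate diluted to 125 ppm compound. Plants were kept at 25 °C and 65% humidity. Mortality after 5 days gave the insecticidal rate (dead/released ×100), from two replicates.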

C=C1CCC(=CSc2ccccc2)C(=Nc2ccc(C)cc2)S1 [Compound 2-4]
100%: insecticidal rate [1] | insecticidal rate [2] | adulticidal rate [3] | insecticidal rate [4]

C=C1SC(=Nc2ccc(C)cc2)C(=CSc2ccc(F)cc2F)CC1(C)C [Compound 2-124]
100%: insecticidal rate [1] | insecticidal rate [2] | adulticidal rate [3] | insecticidal rate [4]
